Measurements reported in patent US11673894B2, “Imidazopyrimidines and triazolopyrimidines as A2A / A2B inhibitors” (Incyte Corporation, priority 2018, dated 2023).
pEC50, pKi: −log10 of the molar value.

Assays:
[1] = biological target: human adenosine A2B receptor (Homo sapiens (Human), UniProt P29275); assay: Adenosine A2B Receptor Cyclic AMP GS Assay; assay type: cell-based; details: HEK-293 cells expressing human A2B receptor; agonist NECA at 12 nM; cAMP accumulation (FRET); read-out: A2B_cAMP_EC50
Sequence of human adenosine A2B receptor (P29275 whole entry): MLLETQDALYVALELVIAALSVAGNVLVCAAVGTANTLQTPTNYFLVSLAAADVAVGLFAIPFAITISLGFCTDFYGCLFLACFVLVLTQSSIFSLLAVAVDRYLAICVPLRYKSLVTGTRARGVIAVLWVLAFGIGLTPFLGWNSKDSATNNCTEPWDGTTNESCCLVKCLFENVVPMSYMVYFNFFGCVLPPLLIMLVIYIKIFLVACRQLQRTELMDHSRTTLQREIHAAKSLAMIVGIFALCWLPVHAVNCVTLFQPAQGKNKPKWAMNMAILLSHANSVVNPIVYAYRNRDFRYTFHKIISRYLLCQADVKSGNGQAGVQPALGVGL
Description: Stably transfected HEK-293 cells expressing the human adenosine A2B receptor (Perkin Elmer) were maintained in MEM culture medium with 10% FBS and 100 μg/ml Geneticin (Life Technologies). 18 to 24 hours prior to assay, geneticin was removed from culture. The cisbio cAMP-GS Dynamic kit utilizing the FRET (Fluorescence Resonance Energy Transfer) technology was used to measure cAMP accumulation in the cells. Compounds of the present disclosure at an appropriate concentration were mixed with 10000 cells/well in white 96 well half area plates (Perkin Elmer) for 30 min at RT gently shaking. Agonist, NECA (R&D Technologies) at 12 nM was added to each well for 60 min at RT gently shaking. Detection reagents, d2-labeled cAMP (acceptor) and anti-cAMP cryptate (donor) were added to each well for 60 min at RT gently shaking. Plates were read on Pherastar (BMG Labtech), fluorescence ratio 665/620 was calculated and EC50 determination was performed by fitting the curve of percent of control versus the log of the compound concentration using GraphPad Prism.

[2] = biological target: Adenosine A2A receptor (Homo sapiens (Human), UniProt P29274); assay: A2A Tag-lite HTRF Assay; details: Tag-lite Adenosine A2A labeled cells; A2A Receptor Red antagonist fluorescent ligand 12.5 nM; one-site competitive binding model; read-out: A2A_Ki
Sequence of Adenosine A2A receptor (P29274 whole entry): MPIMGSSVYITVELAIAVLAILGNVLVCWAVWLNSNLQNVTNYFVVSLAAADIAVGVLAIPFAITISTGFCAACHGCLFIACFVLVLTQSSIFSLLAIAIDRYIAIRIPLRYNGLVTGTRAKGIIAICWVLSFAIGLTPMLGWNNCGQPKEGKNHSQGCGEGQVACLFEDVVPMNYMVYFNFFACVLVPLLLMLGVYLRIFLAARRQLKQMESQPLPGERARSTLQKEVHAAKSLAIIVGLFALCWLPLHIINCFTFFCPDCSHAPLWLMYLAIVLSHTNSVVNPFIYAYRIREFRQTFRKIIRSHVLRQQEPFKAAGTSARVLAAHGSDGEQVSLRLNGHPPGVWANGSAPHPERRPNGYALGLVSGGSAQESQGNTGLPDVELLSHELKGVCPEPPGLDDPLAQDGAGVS
Text: The final concentration of DMSO was 1%.

Compound	pEC50 [1]	pKi [2]
N#Cc1cccc(-c2nc(N)n3nc(C(O)c4c(F)cccc4F)nc3c2-c2ccncn2)c1 (single isomer, unassigned) [Example 76, 3-(5-Amino-2-((2,6-difluorophenyl)(hydroxy)methyl)-8-(pyrimidin-4-yl)-[1,2,4]triazolo[1,5-c]pyrimidin-7-yl)benzonitrile]	> 8.00	–
N#Cc1cccc(-c2nc(N)n3nc(C(O)c4c(F)cccc4F)nc3c2-c2ccncn2)c1 (single isomer, unassigned) [Example 77, 3-(5-Amino-2-((2,6-difluorophenyl)(hydroxy)methyl)-8-(pyrimidin-4-yl)-[1,2,4]triazolo[1,5-c]pyrimidin-7-yl)benzonitrile]	7.00 to 8.00	–
Cc1cc(-c2c(-c3cnc4c(c3)CCN4)nc(N)n3ccnc23)cc(C)n1 [Example 2, 7-(2,3-Dihydro-1H-pyrrolo[2,3-b]pyridin-5-yl)-8-(2,6-dimethylpyridin-4-yl)imidazo[1,2-c]pyrimidin-5-amine]	–	6.00 to 7.00
Cc1cc(-c2c(-c3ccccc3)nc(N)n3c(CN4CCOCC4)cnc23)cc(C)n1 [Example 3, 8-(2,6-Dimethylpyridin-4-yl)-3-(morpholinomethyl)-7-phenylimidazo[1,2-c]pyrimidin-5-amine]	–	7.00 to 8.00
Nc1nc(-c2ccncc2)c(-c2ccncc2)c2nccn12 [Example 5, 7,8-Di(pyridin-4-yl)imidazo[1,2-c]pyrimidin-5-amine]	7.00 to 8.00	7.00 to 8.00
Cc1occc1-c1nc(N)n2ccnc2c1-c1ccncc1 [Example 6, 7-(2-Methylfuran-3-yl)-8-(pyridin-4-yl)imidazo[1,2-c]pyrimidin-5-amine]	–	7.00 to 8.00
Nc1nc(-c2ccccc2F)c(-c2ccncc2)c2nccn12 [Example 7, 7-(2-Fluorophenyl)-8-(pyridin-4-yl)imidazo[1,2-c]pyrimidin-5-amine]	7.00 to 8.00	7.00 to 8.00
Nc1nc(-c2cc3ccccc3o2)c(-c2ccncc2)c2nccn12 [Example 8, 7-(Benzofuran-2-yl)-8-(pyridin-4-yl)imidazo[1,2-c]pyrimidin-5-amine]	–	6.00 to 7.00
Cc1cc(-c2c(-c3cnn(C)c3)nc(N)n3ccnc23)ccn1 [Example 9, 7-(1-Methyl-1H-pyrazol-4-yl)-8-(2-methylpyridin-4-yl)imidazo[1,2-c]pyrimidin-5-amine]	–	7.00 to 8.00
CCOC(=O)c1cn2c(N)nc(-c3ccccc3)c(-c3ccnc(C)c3)c2n1 [Example 11, Ethyl 5-amino-8-(2-methylpyridin-4-yl)-7-phenylimidazo[1,2-c]pyrimidine-2-carboxylate]	–	7.00 to 8.00
COC(=O)c1cc(-c2cn3c(N)nc(-c4ccccc4)c(-c4ccncc4)c3n2)on1 [Example 12, Methyl 5-(5-amino-7-phenyl-8-(pyridin-4-yl)imidazo[1,2-c]pyrimidin-2-yl)isoxazole-3-carboxylate]	–	7.00 to 8.00
CCOc1ccc(-c2cnc3c(-c4ccnc(C)c4)c(-c4ccccc4)nc(N)n23)cc1 [Example 13, 3-(4-Ethoxyphenyl)-8-(2-methylpyridin-4-yl)-7-phenylimidazo[1,2-c]pyrimidin-5-amine]	–	7.00 to 8.00
CCNC(=O)c1nc2c(-c3ccnc(OC)c3)c(-c3cccc(C#N)c3)nc(N)n2c1C [Example 18, 5-Amino-7-(3-cyanophenyl)-N-ethyl-8-(2-methoxypyridin-4-yl)-3-methylimidazo[1,2-c]pyrimidine-2-carboxamide]	7.00 to 8.00	7.00 to 8.00
CCNC(=O)c1cn2c(NCC)nc(-c3ccccc3)c(-c3cc(C)nc(C)c3)c2n1 [Example 22, 8-(2,6-Dimethylpyridin-4-yl)-N-ethyl-5-(ethylamino)-7-phenylimidazo[1,2-c]pyrimidine-2-carboxamide]	< 6.00	7.00 to 8.00

Further lines, results first:

pEC50 [1]	pKi [2]	Compound
6.00 to 7.00	> 8.00	Cc1cc(-c2c(-c3cccc(C#N)c3)nc(N)n3ccnc23)cc(C)n1 [Example 1, 3-(5-Amino-8-(2,6-dimethylpyridin-4-yl)imidazo[1,2-c]pyrimidin-7-yl)benzonitrile]
> 8.00	> 8.00	COc1cccc(-c2nc(N)n3ccnc3c2-c2ccncc2)c1 [Example 4, 7-(3-Methoxyphenyl)-8-(pyridin-4-yl)imidazo[1,2-c]pyrimidin-5-amine]
6.00 to 7.00	> 8.00	Cc1cc(-c2c(-c3ccccc3)nc(N)n3cc(-c4ccccc4)nc23)ccn1 [Example 10, 8-(2-Methylpyridin-4-yl)-2,7-diphenylimidazo[1,2-c]pyrimidin-5-amine]
7.00 to 8.00	> 8.00	Cc1cc(-c2c(-c3ccccc3)nc(N)n3cc(C(N)=O)nc23)ccn1 [Example 14, 5-Amino-8-(2-methylpyridin-4-yl)-7-phenylimidazo[1,2-c]pyrimidine-2-carboxamide]
6.00 to 7.00	> 8.00	CCNC(=O)c1cn2c(N)nc(-c3ccccc3)c(C3=CCN(C(N)=O)CC3)c2n1 [Example 15, 5-Amino-8-(1-carbamoyl-1,2,3,6-tetrahydropyridin-4-yl)-N-ethyl-7-phenylimidazo[1,2-c]pyrimidine-2-carboxamide]
6.00 to 7.00	> 8.00	CCNC(=O)c1cn2c(N)nc(-c3ccccc3)c(C3CCN(C(N)=O)CC3)c2n1 [Example 16, 5-Amino-8-(1-carbamoylpiperidin-4-yl)-N-ethyl-7-phenylimidazo[1,2-c]pyrimidine-2-carboxamide]
7.00 to 8.00	> 8.00	CCNC(=O)c1nc2c(-c3ccnc(OC)c3)c(-c3cccc(C#N)c3)nc(N)n2c1OCCO [Example 17, 5-Amino-7-(3-cyanophenyl)-JV-ethyl-3-(2-hydroxyethoxy)-8-(2-methoxypyridin-4-yl)imidazo[1,2-c]pyrimidine-2-carboxamide]
6.00 to 7.00	> 8.00	CCNC(=O)c1nc2c(-c3ccnc(OC)c3)c(-c3cccc(C#N)c3)nc(N)n2c1-c1ccccn1 [Example 19, 5-Amino-7-(3-cyanophenyl)-N-ethyl-8-(2-methoxypyridin-4-yl)-3-(pyridin-2-yl)imidazo[1,2-c]pyrimidine-2-carboxamide]
6.00 to 7.00	> 8.00	CCNC(=O)c1nc2c(-c3cc(C)nc(C)c3)c(-c3ccccc3)nc(N)n2c1Br [Example 20, 5-Amino-3-bromo-8-(2,6-dimethylpyridin-4-yl)-N-ethyl-7-phenylimidazo[1,2-c]pyrimidine-2-carboxamide]
< 6.00	> 8.00	CCNC(=O)c1nc2c(-c3cc(C)nc(C)c3)c(-c3ccccc3)nc(N)n2c1C#N [Example 21, 5-Amino-3-cyano-8-(2,6-dimethylpyridin-4-yl)-N-ethyl-7-phenylimidazo[1,2-c]pyrimidine-2-carboxamide]
–	> 8.00	CCNC(=O)c1cn2c(N)nc(-c3ccccc3)c(-c3cc(C)[n+]([O-])c(C)c3)c2n1 [Example 23, 4-(5-Amino-2-(ethylcarbamoyl)-7-phenylimidazo[1,2-c]pyrimidin-8-yl)-2,6-dimethylpyridine 1-oxide]
> 8.00	> 8.00	CCn1cc(-c2c(-c3cccc(C#N)c3)nc(N)n3cc(C(=O)N4CC(O)C4)nc23)ccc1=O [Example 24, 3-(5-Amino-8-(1-ethyl-6-oxo-1,6-dihydropyridin-3-yl)-2-(3-hydroxyazetidine-1-carbonyl)imidazo[1,2-c]pyrimidin-7-yl)benzonitrile]
6.00 to 7.00	> 8.00	CCn1cc(-c2c(-c3cccc(C#N)c3)nc(N)n3cc(C(=O)Nc4cnn(CCO)c4)nc23)ccc1=O [Example 25, 5-Amino-7-(3-cyanophenyl)-8-(1-ethyl-6-oxo-1,6-dihydropyridin-3-yl)-N-(1-(2-hydroxyethyl)-1H-pyrazol-4-yl)imidazo[1,2-c]pyrimidine-2-carboxamide]
> 8.00	> 8.00	CCNC(=O)c1cn2c(N)nc(-c3cccc(C#N)c3)c(-c3ccncc3)c2n1 [Example 26, 5-Amino-7-(3-cyanophenyl)-N-ethyl-8-(pyridin-4-yl)imidazo[1,2-c]pyrimidine-2-carboxamide]
7.00 to 8.00	> 8.00	CCNC(=O)c1cn2c(N)nc(-c3cccc(C#N)c3)c(-c3ccncc3C)c2n1 [Example 27, 5-Amino-7-(3-cyanophenyl)-N-ethyl-8-(3-methylpyridin-4-yl)imidazo[1,2-c]pyrimidine-2-carboxamide]
> 8.00	> 8.00	CCNC(=O)c1cn2c(N)nc(-c3cccc(C#N)c3)c(-c3ccncc3F)c2n1 [Example 28, 5-Amino-7-(3-cyanophenyl)-N-ethyl-8-(3-fluoropyridin-4-yl)imidazo[1,2-c]pyrimidine-2-carboxamide]
> 8.00	> 8.00	CCNC(=O)c1cn2c(N)nc(-c3cccc(C#N)c3)c(-c3ccncc3Cl)c2n1 [Example 29, 5-Amino-7-(3-cyanophenyl)-N-ethyl-8-(3-chloropyridin-4-yl)imidazo[1,2-c]pyrimidine-2-carboxamide]
> 8.00	> 8.00	CCNC(=O)c1cn2c(N)nc(-c3cccc(C#N)c3)c(-c3ccncc3OC)c2n1 [Example 30, 5-Amino-7-(3-cyanophenyl)-N-ethyl-8-(3-methoxypyridin-4-yl)imidazo[1,2-c]pyrimidine-2-carboxamide]
